≈ marks a conversion by molar mass, not a printed value.
What was measured:
[1] = Stability in human plasma assessed as half life measured at 120 mins by LC/MS-MS analysis; type: ADME, cell-free
Candida albicans [2] = assay: Antifungal activity against Candida albicans ATCC SC5314 assessed as fungal growth inhibition by NCCLS protocol based method; type: functional
Candida albicans [3] = assay: Antifungal activity against Candida albicans CPCC400616 assessed as fungal growth inhibition by NCCLS protocol based method; type: functional
Candida tropicalis = assay: Antifungal activity against Candida tropicalis CGMCC 2.3739 assessed as fungal growth inhibition by NCCLS protocol based method; type: functional
Cryptococcus neoformans = assay: Antifungal activity against Cryptococcus neoformans CGMCC 2.3161 assessed as fungal growth inhibition by NCCLS protocol based method; type: functional
Candida parapsilosis = assay: Antifungal activity against Candida parapsilosis GIM2.190 assessed as fungal growth inhibition by NCCLS protocol based method; type: functional; details: Lodderomyces parapsilosis
Nakaseomyces glabratus = assay: Antifungal activity against Candida glabrata clinical isolate assessed as fungal growth inhibition by NCCLS protocol based method; type: functional
Pichia kudriavzevii = assay: Antifungal activity against Candida krusei GIM2.1 assessed as fungal growth inhibition by NCCLS protocol based method; type: functional
Aspergillus fumigatus = assay: Antifungal activity against Aspergillus fumigatus CGMCC3.7795 assessed as fungal growth inhibition by NCCLS protocol based method; type: functional
Candida albicans [4] = assay: Antifungal activity against FLC-resistant Candida albicans CaR assessed as fungal growth inhibition by NCCLS protocol based method; type: functional
Candida albicans [5] = assay: Antifungal activity against FLC-resistant Candida albicans 901 assessed as fungal growth inhibition by NCCLS protocol based method; type: functional
Candida albicans [6] = assay: Antifungal activity against FLC-resistant Candida albicans 904 assessed as fungal growth inhibition by NCCLS protocol based method; type: functional
Candida albicans [7] = assay: Antifungal activity against FLC-resistant Candida albicans 632 assessed as fungal growth inhibition by NCCLS protocol based method; type: functional
Candida albicans [8] = assay: Antifungal activity against FLC-resistant Candida albicans 100 assessed as fungal growth inhibition by NCCLS protocol based method; type: functional
Candida albicans [9] = assay: Antifungal activity against FLC-resistant Candida albicans 103 assessed as fungal growth inhibition by NCCLS protocol based method; type: functional
Candida albicans [10] = assay: Antifungal activity against FLC-resistant Candida albicans 311 assessed as fungal growth inhibition by NCCLS protocol based method; type: functional
Candida albicans [11] = assay: Antibiofilm activity against FLC-resistant Candida albicans CPCC400616 assessed as assessed as inhibition of biofilm formation measured at 3 hrs by XTT reduction assay; type: functional
Candida albicans [12] = assay: Antibiofilm activity against FLC-resistant Candida albicans CPCC400616 assessed as assessed as inhibition of biofilm formation measured at 6 hrs by XTT reduction assay; type: functional
Candida albicans [13] = assay: Antibiofilm activity against FLC-resistant Candida albicans CPCC400616 assessed as assessed as inhibition of biofilm formation measured at 18 hrs by XTT reduction assay; type: functional
Candida albicans [14] = assay: Antibiofilm activity against FLC-resistant Candida albicans CPCC400616 assessed as assessed as inhibition of biofilm formation measured at 24 hrs by XTT reduction assay; type: functional
[15] = Stability in human plasma assessed as compound remaining measured at 120 mins by LC/MS-MS analysis; type: ADME, cell-free; details: read-out: Stability
Candida albicans [16] = assay: Fungicidal activity against Candida albicans CPCC400616 assessed as minimum inhibitory concentration incubated for 48 hrs; type: functional
Candida albicans [17] = assay: Fungicidal activity against Candida albicans CPCC400616 assessed as minimum fungicidal concentration incubated for 48 hrs; type: functional
Candida albicans [18] = assay: […] for fungicidal activity against Candida albicans CPCC400616; type: functional
Candida albicans [19] = assay: Fungicidal activity against Candida albicans CPCC400616 assessed as reduction in colony forming units at 8 times MIC incubated for 24 hrs by time kill assay; type: functional
Candida albicans [20] = assay: Fungicidal activity against Candida albicans CPCC400616 assessed as reduction in colony forming units at 2 to 8 times MIC incubated for 24 hrs by time kill assay; type: functional, organism-based; details: DDE = dose-dependent effect
[21] = Cytotoxicity against human HEK293T cells assessed as inhibition of cell growth incubated for 4 hrs by MTT assay; type: toxicity, cell-based, HEK-293T
A549 = assay: Cytotoxicity against human A549 cells assessed as inhibition of cell growth incubated for 4 hrs by MTT assay; type: functional, cell-based; details: A549, 4 h
MCF7 = assay: Cytotoxicity against human MCF7 cells assessed as inhibition of cell growth incubated for 4 hrs by MTT assay; type: functional, cell-based; details: MCF7, 4 h
HepG2 = assay: Cytotoxicity against human HepG2 cells assessed as inhibition of cell growth incubated for 4 hrs by MTT assay; type: functional, cell-based; details: HepG2, 4 h
[22] = Half life in Sprague-Dawley rat at 10 mg/kg, po measured after 24 hrs by LC-MS/MS analysis; type: ADME, organism-based; details: in vivo
[23] = Metabolic stability in human liver microsomes assessed as half life preincubated for 10 mins followed by NADPH addition and measured after 5 to 60 mins by LC-MS/MS analysis; type: ADME, Microsome; details: time 15-70 min
[24] = Metabolic stability in human microsomes assessed as intrinsic clearance preincubated for 10 mins followed by NADPH addition and measured after 5 to 60 mins by LC-MS/MS analysis; type: ADME, Microsome; details: time 15-70 min
[25] = Metabolic stability in human liver microsomes assessed as compound remaining preincubated for 10 mins followed by NADPH addition and measured at 60 mins by LC-MS/MS analysis; type: ADME, Microsome; details: time 70 min, read-out: Stability
[26] = Stability in human plasma assessed as compound remaining measured at 60 mins by LC/MS-MS analysis; type: ADME, cell-free; details: read-out: Stability
[27] = AUClast in Sprague-Dawley rat at 10 mg/kg, po measured after 24 hrs by LC-MS/MS analysis; type: ADME, organism-based; parameters: dose 10 mg/kg, time 24 hrs, route po; details: in vivo
[28] = AUClast in Sprague-Dawley rat at 3 mg/kg, iv measured after 24 hrs by LC-MS/MS analysis; type: ADME, organism-based; parameters: time 24 hrs, dose 3 mg/kg, route iv; details: in vivo
[29] = Half life in Sprague-Dawley rat at 3 mg/kg, iv measured after 24 hrs by LC-MS/MS analysis; type: ADME, organism-based; details: in vivo
[30] = Oral bioavailability in Sprague-Dawley rat at 10 mg/kg measured measured after 24 hrs by LC-MS/MS analysis; type: ADME, organism-based; details: in vivo

Fc1ccc(C2(Cn3ccnc3)COC(c3ccc(-c4ccccc4F)s3)=N2)cc1 (centres undefined)
half-life [1]: > 4.8 h
MIC (Candida albicans [2]): 0.03 µg/mL (≈ 0.0712 µM)
MIC (Candida albicans [3]): 0.03 µg/mL (≈ 0.0712 µM)
MIC (Candida tropicalis): 0.03 µg/mL (≈ 0.0712 µM)
MIC (Cryptococcus neoformans): 0.125 µg/mL (≈ 0.297 µM)
MIC (Candida parapsilosis): 0.25 µg/mL (≈ 0.593 µM)
MIC (Nakaseomyces glabratus): 0.06 µg/mL (≈ 0.142 µM)
MIC (Pichia kudriavzevii): 0.25 µg/mL (≈ 0.593 µM)
MIC (Aspergillus fumigatus): 0.25 µg/mL (≈ 0.593 µM)
MIC (Candida albicans [4]): 0.25 µg/mL (≈ 0.593 µM)
MIC (Candida albicans [5]): 0.125 µg/mL (≈ 0.297 µM)
MIC (Candida albicans [6]): 1 µg/mL (≈ 2.37 µM)
MIC (Candida albicans [7]): 0.5 µg/mL (≈ 1.19 µM)
MIC (Candida albicans [8]): 0.5 µg/mL (≈ 1.19 µM)
MIC (Candida albicans [9]): 0.25 µg/mL (≈ 0.593 µM)
MIC (Candida albicans [10]): 0.125 µg/mL (≈ 0.297 µM)
MIC50 (Candida albicans [11]): 0.125 µg/mL (≈ 0.297 µM)
MIC50 (Candida albicans [12]): 1 µg/mL (≈ 2.37 µM)
MIC50 (Candida albicans [13]): 2 µg/mL (≈ 4.75 µM)
MIC50 (Candida albicans [14]): 8 µg/mL (≈ 19 µM)
remaining at 2 h [15]: 101%
MIC (Candida albicans [16]): 0.03 µg/mL (≈ 0.0712 µM)
MFC (Candida albicans [17]): 0.125 µg/mL (≈ 0.297 µM)
Ratio (Candida albicans [18]): 4
Activity (Candida albicans [19]): 2 log10CFU/ml
Activity (Candida albicans [20]): Dde
IC50 at 4 h [21]: 14.2 µM
IC50 (A549): > 50 µM
IC50 (MCF7): > 50 µM
IC50 (HepG2): 17 µM
half-life [22]: 4.44 h
half-life [23]: 1.18 h
CLint [24]: 19.7 µL/min/mg
remaining at 1 h [25]: 49.7%
remaining at 1 h [26]: 98.7%
AUC(0-t) at 24 h [27]: 466 ng·h/mL
AUC(0-t) at 24 h [28]: 925 ng·h/mL
half-life [29]: 1.02 h
bioavailability [30]: 15.1%
